According to patent publication US20130289083A1, “IDO Inhibitors” (priority 2007, published 2013):
Where two headings read alike, the source gives them in different places.

What was measured:
[1] = molecular target: purified human IDO protein (Homo sapiens, UniProt P14902); experiment: Enzymatic IDO assay (kynurenine production, absorbance 480 nm); conditions: recombinant human IDO, enzymatic activity
[2] = system: IDO-293-T-Rex cells
Description: To measure the toxicity of each compound after 16 h incubation with cells, cell viability is measured via a WST-1 assay (Roche) according to instructions from the manufacturer. Briefly, after the incubation with each compound, medium is aspirated and replaced with […] of WST-1 reagent, and incubated 30 min at 37° C. Absorbance at 540 nm is correlated with the number of viable cells. Determination of IC50 (Kynurenine assay) or LD50 (WST-1 assay) is performed via non-linear regression analysis using GraphPad Prism software.
Viability was measure by the WST assay as described in one of the examples.

[3] = system: 293-T-Rex cells expressing murine IDO; experiment: Toxicity / cell viability (LD50) in the murine IDO cell based assay
[4] = molecular target: human IDO (Homo sapiens, UniProt P14902); experiment: Cell based IDO/kynurenine assay in IDO-293-T-Rex cells; conditions: kynurenine production, 293T cells expressing human IDO
Method in brief: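 293-T-REx cells stably carrying doxycycline-inducible human or murine IDO were incubated with inhibitors in induction medium for 16 h at 37° C. Medium was TCA-treated at 60° C and reacted with p-dimethylaminobenzaldehyde. Kynurenine was quantified by absorbance at 480 nm.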

[5] = molecular target: T1, murine IDO (Mus musculus, UniProt P28776); experiment: Cell based IDO/kynurenine assay in 293-T-Rex cells expressing murine IDO
T1 construct: expressed in transfected cells; host or cells: 293-T-REx cells (Invitrogen), doxycycline-inducible CMV-tet promoter
Description: Transfected cells were selected in DBZ medium (DMEM, 10% FBS, 1× Penicillin+Streptomycin, 2 mM L-glutamine, 5 μg/mL blasticidin and 25 μg/ml Zeocin) at 37° C. with a 5% CO2 in air atmosphere. Individual clones were isolated by limiting dilution cloning from these populations.
The cells incubated in Neutral medium serve as negative control of the assay. The cells incubated in Induction medium and without inhibitor serve as the positive control of the assay. The incubation is carried out for 16 h at 37° C. in a cell culture incubator. 200 μL of medium are transferred to U-bottom polypropylene 96-well plates containing 25 μL of 30% TCA, incubated 30 minutes at 60° C. and centrifuged at 3400 g for 5 minutes. 150 μL of the clear supernatant is transferred to a polystyrene 96-well plate containing 50 μL of 4% (w/v) of p-dimethylaminobenzaldehyde in acetic acid, incubated for 10 min. Kynurenine concentration is determined by measuring the absorbance at 480 nm.

[6] = Table 16, cells expressing murine IDO, read-out: mIDO EC50

T1 sequence (P28776 whole entry): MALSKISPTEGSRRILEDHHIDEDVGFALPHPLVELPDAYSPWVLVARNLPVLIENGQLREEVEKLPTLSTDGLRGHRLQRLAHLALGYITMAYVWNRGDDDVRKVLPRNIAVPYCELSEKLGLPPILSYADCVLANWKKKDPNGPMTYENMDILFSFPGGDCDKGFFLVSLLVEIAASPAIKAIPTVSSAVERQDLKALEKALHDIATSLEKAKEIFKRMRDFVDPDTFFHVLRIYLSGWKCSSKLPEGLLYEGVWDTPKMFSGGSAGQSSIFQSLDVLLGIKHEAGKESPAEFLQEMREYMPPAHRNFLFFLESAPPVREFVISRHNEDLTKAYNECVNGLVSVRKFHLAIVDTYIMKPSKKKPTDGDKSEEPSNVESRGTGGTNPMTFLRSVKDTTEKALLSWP
Chain of purified human IDO protein (P14902 whole entry P110S/E119G): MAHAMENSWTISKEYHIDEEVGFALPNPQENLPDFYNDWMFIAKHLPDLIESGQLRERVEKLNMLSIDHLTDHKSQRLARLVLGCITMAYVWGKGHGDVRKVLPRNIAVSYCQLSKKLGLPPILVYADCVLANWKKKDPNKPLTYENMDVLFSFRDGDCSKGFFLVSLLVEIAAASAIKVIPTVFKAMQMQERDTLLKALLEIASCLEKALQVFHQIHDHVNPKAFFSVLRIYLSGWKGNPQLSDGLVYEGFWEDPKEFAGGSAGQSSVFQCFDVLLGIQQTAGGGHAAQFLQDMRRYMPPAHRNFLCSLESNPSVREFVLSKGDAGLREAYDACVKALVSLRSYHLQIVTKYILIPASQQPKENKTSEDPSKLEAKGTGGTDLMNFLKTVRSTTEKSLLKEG
Chain of human IDO (P14902 whole entry): as the sequence (P14902 whole entry P110S/E119G) above, with S110P, G119E counted along it

| Compound | IC50 ([1]; hIDO IC50, Table 16) [µM] | hIDO LD50 [2] | mIDO LD50 [3] | EC50 ([4]; Table 16, read-out: hIDO EC50) [µM] | EC50 [5, 6] [µM] | IC50 ([1]; hIDO IC50, Table 15) [µM] | EC50 ([4]; Table 15, read-out: hIDO EC50) [µM] | EC50 ([5]; Table 15, printed as a number instead of a range class, read-out: mIDO EC50) [µM] | hIDO LD50 ([2]; Table 16, 50% cell viability loss, WST assay, human IDO cell based assay) | mIDO LD50 ([3]; Table 16, cell viability loss, murine IDO cell based assay) | EC50 ([4]; hIDO EC50, Table 16) [µM] | EC50 ([5]; mIDO EC50, Table 16, cells expressing murine IDO) [µM] |
| --- | --- | --- | --- | --- | --- | --- | --- | --- | --- | --- | --- | --- |
| NOCc1cccc(Cl)c1 [compound 1672, O-(3-chlorobenzyl)hydroxylamine] | < 10 | D (key: A: <10 μM; B: 10-100 μM; C: 100-1000 μM; D>1000 μM) | D (key: A: <10 μM; B: 10-100 μM; C: 100-1000 μM; D>1000 μM) | < 10 | < 10 | – | – | – | – | – | – | – |
| NOCc1cc(F)cc(F)c1 [compound 1770, O-(3,5-difluorobenzyl)hydroxylamine] | – | D (key: A: <10 μM; B: 10-100 μM; C: 100-1000 μM; D>1000 μM) | D (key: A: <10 μM; B: 10-100 μM; C: 100-1000 μM; D>1000 μM) | – | – | < 10 | < 10 | 2.3 | – | – | – | – |
| NOCc1cc([N+](=O)[O-])cc([N+](=O)[O-])c1 [compound 1657, O-(3,5-dinitrobenzyl)hydroxylamine] | < 10 | – | – | – | – | – | – | – | D (D>1000 μM) | D (D>1000 μM) | < 10 | < 10 |
| NOCc1ccc(I)cc1 [compound 1818, O-(4-iodobenzyl)hydroxylamine] | < 10 | D (key: A: <10 μM; B: 10-100 μM; C: 100-1000 μM; D>1000 μM) | D (key: A: <10 μM; B: 10-100 μM; C: 100-1000 μM; D>1000 μM) | < 10 | 10 to 100 | – | – | – | – | – | – | – |
